Source: PubChem BioAssay AID248 (DTP/NCI, 2004)
Several values for one entry are separate records, joined by “and”; a condition that tells them apart may be missing. Equal entries are not always repeated. Toxic doses and inconclusive results are not listed. No stated cut-off is given here; in the data, active means T/C of 150% or more; inactive means T/C below 125%.

Tested on: L1210 leukemia ip in BDF1 mice, survival T/C
Assay: NCI In Vivo Anticancer Drug Screen. Data for tumor model L1210 Leukemia (intraperitoneal) in B6D2F1 (BDF1) mice
Details: endpoint: mean survival time, higher = longer survival
Outline: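 Read-out is survival time, reported as the treated-group measurement over the vehicle-control measurement.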

[1] = dose: 75.0 mg/kg/injection, schedule: Q04DX003 (ip), vehicle: saline
[2] = dose: 100.0 mg/kg/injection, schedule: Q04DX003 (ip), vehicle: Klucel (hydroxypropylcellulose) (HPC)
[3] = dose: 75.0 mg/kg/injection, schedule: Q01DX001 (ip), vehicle: saline
[4] = dose: 100.0 mg/kg/injection, schedule: Q01DX009 (ip), vehicle: saline
[5] = dose: 100.0 mg/kg/injection, schedule: Q04DX003 (ip), vehicle: saline
[6] = dose: 200.0 mg/kg/injection, schedule: Q01DX009 (ip), vehicle: saline
[7] = dose: 200.0 mg/kg/injection, schedule: Q04DX003 (ip), vehicle: saline
[8] = dose: 400.0 mg/kg/injection, schedule: Q04DX003 (ip), vehicle: saline
[9] = dose: 100.0 mg/kg/injection, schedule: Q04DX003 (ip), vehicle: saline with Tween-80
[10] = dose: 200.0 mg/kg/injection, schedule: Q04DX003 (ip), vehicle: saline with Tween-80
[11] = dose: 400.0 mg/kg/injection, schedule: Q04DX003 (ip), vehicle: saline with Tween-80
[12] = dose: 100.0 mg/kg/injection, schedule: Q01DX001 (ip), vehicle: saline
[13] = dose: 200.0 mg/kg/injection, schedule: Q01DX001 (ip), vehicle: saline
[14] = dose: 100.0 mg/kg/injection, schedule: Q01DX009 (ip), vehicle: Klucel (hydroxypropylcellulose) (HPC)
[15] = dose: 200.0 mg/kg/injection, schedule: Q01DX009 (ip), vehicle: Klucel (hydroxypropylcellulose) (HPC)
[16] = dose: 400.0 mg/kg/injection, schedule: Q01DX001 (ip), vehicle: saline
[17] = dose: 50.0 mg/kg/injection, schedule: Q01DX001 (ip), vehicle: saline
[18] = dose: 100.0 mg/kg/injection, schedule: Q01DX001 (ip), vehicle: carboxymethylcellulose (CMC)
[19] = dose: 200.0 mg/kg/injection, schedule: Q01DX001 (ip), vehicle: carboxymethylcellulose (CMC)
[20] = dose: 400.0 mg/kg/injection, schedule: Q01DX001 (ip), vehicle: carboxymethylcellulose (CMC)

Measured: T/C

Cc1cccc2c(=O)c(C(=O)O)cn(C)c12
inactive: dose: 50.0 mg/kg/injection, schedule: Q04DX002 (ip), vehicle: saline 107 % of control | dose: 100.0 mg/kg/injection, schedule: Q04DX002 (ip), vehicle: saline 107 % of control | dose: 200.0 mg/kg/injection, schedule: Q04DX002 (ip), vehicle: saline 107 % of control

C[PH+](c1ccccc1)c1ccccc1.C[PH+](c1ccccc1)c1ccccc1.[Cl][Pd][Cl]
inactive: [1] 112 % of control | dose: 150.0 mg/kg/injection, schedule: Q04DX003 (ip), vehicle: saline 107 % of control | dose: 300.0 mg/kg/injection, schedule: Q04DX003 (ip), vehicle: saline 104 % of control

Cc1cc(C)c(N(CC(=O)O)S(=O)(=O)c2ccccc2)c(C)c1Br
inactive: dose: 75.0 mg/kg/injection, schedule: Q04DX003 (ip), vehicle: Klucel (hydroxypropylcellulose) (HPC) 92 % of control | dose: 150.0 mg/kg/injection, schedule: Q04DX003 (ip), vehicle: Klucel (hydroxypropylcellulose) (HPC) 90 % of control | dose: 300.0 mg/kg/injection, schedule: Q04DX003 (ip), vehicle: Klucel (hydroxypropylcellulose) (HPC) 90 % of control

C=CCc1cc(CNC(C)C)c(O)c(OC)c1
inactive: dose: 25.0 mg/kg/injection, schedule: Q04DX003 (ip), vehicle: Klucel (hydroxypropylcellulose) (HPC) 96 % of control | dose: 50.0 mg/kg/injection, schedule: Q04DX003 (ip), vehicle: Klucel (hydroxypropylcellulose) (HPC) 88 % of control | [2] 101 % of control and 92 % of control

CSC(=N)N(C)Cc1ccccc1
inactive: dose: 9.37 mg/kg/injection, schedule: Q01DX009 (ip), vehicle: saline 103 % of control | dose: 18.75 mg/kg/injection, schedule: Q01DX009 (ip), vehicle: saline 111 % of control | dose: 18.75 mg/kg/injection, schedule: Q04DX003 (ip), vehicle: saline 102 % of control | dose: 37.5 mg/kg/injection, schedule: Q01DX009 (ip), vehicle: saline 108 % of control | dose: 37.5 mg/kg/injection, schedule: Q04DX003 (ip), vehicle: saline 96 % of control | [3] 102 % of control | [1] 88 % of control

O=C(O)CCC(=O)c1cccc2ccccc12
inactive: [4] 96 % of control | [5] 105 % of control | [6] 112 % of control | [7] 94 % of control | [8] 103 % of control

COC(=O)C(NC(=O)OCc1ccccc1)C(=O)OC
inactive: [9] 100 % of control | [10] 100 % of control | [11] 98 % of control

CC1=CC2=C(C(=O)C1=O)C(C)CCC2C(C)C (stereo not given)
inactive: [12] 98 % of control | [13] 94 % of control

ClCCCN1c2ccccc2CCc2ccccc21
inactive: dose: 100.0 mg/kg/injection, schedule: Q04DX003 (ip), vehicle: acetone 100 % of control | dose: 200.0 mg/kg/injection, schedule: Q04DX003 (ip), vehicle: acetone 100 % of control | dose: 400.0 mg/kg/injection, schedule: Q04DX003 (ip), vehicle: acetone 103 % of control

COc1cc(C2N=C(N)N=C(N)N2c2ccc(S(N)(=O)=O)cc2)cc(OC)c1OC (stereo not given)
inactive: [3] 93 % of control | dose: 150.0 mg/kg/injection, schedule: Q01DX001 (ip), vehicle: saline 96 % of control

O=P(OCc1ccccc1)(OCc1ccccc1)C(Nc1ccccc1)c1ccccc1 (stereo not given)
inactive: dose: 50.0 mg/kg/injection, schedule: Q01DX009 (ip), vehicle: Klucel (hydroxypropylcellulose) (HPC) 100 % of control | [14] 103 % of control | [2] 100 % of control | [15] 103 % of control | dose: 200.0 mg/kg/injection, schedule: Q04DX003 (ip), vehicle: Klucel (hydroxypropylcellulose) (HPC) 94 % of control | dose: 400.0 mg/kg/injection, schedule: Q04DX003 (ip), vehicle: Klucel (hydroxypropylcellulose) (HPC) 93 % of control

COC(=O)C(CCC(=O)CN1C(=O)c2ccccc2C1=O)N1C(=O)c2ccccc2C1=O (stereo not given)
inactive: [9] 101 % of control | [10] 99 % of control | [11] 87 % of control

O=CNC(CSSCC(NC=O)C(=O)O)C(=O)O (stereo not given)
inactive: [9] 101 % of control | [10] 103 % of control | [11] 90 % of control

CCC(C(=O)O)N1C(=O)c2ccccc2C1=O (stereo not given)
inactive: [12] 102 % of control | [13] 97 % of control | [16] 103 % of control

O=C1C(c2ccccc2)CS(=O)(=O)CC1c1ccccc1 (stereo not given)
inactive: dose: 50.0 mg/kg/injection, schedule: Q04DX002 (ip), vehicle: Klucel (hydroxypropylcellulose) (HPC) 101 % of control | dose: 100.0 mg/kg/injection, schedule: Q04DX002 (ip), vehicle: Klucel (hydroxypropylcellulose) (HPC) 99 % of control | dose: 200.0 mg/kg/injection, schedule: Q04DX002 (ip), vehicle: Klucel (hydroxypropylcellulose) (HPC) 96 % of control

O=C1CCC(N2C(=O)C3C4C=CC(CC4)C3C2=O)C(=O)N1 (stereo not given)
inactive: [5] 97 % of control | [7] 102 % of control | [8] 90 % of control

CNc1ccc(Cl)cc1C
inactive: dose: 100.0 mg/kg/injection, schedule: Q04DX002 (sc), vehicle: olive oil, sesame oil, peanut oil 103 % of control | dose: 200.0 mg/kg/injection, schedule: Q04DX002 (sc), vehicle: olive oil, sesame oil, peanut oil 110 % of control | dose: 400.0 mg/kg/injection, schedule: Q04DX002 (sc), vehicle: olive oil, sesame oil, peanut oil 100 % of control

N=C(N)c1ccc(OCCCCOc2ccc(NC(=O)Nc3ccc(S(=O)(=O)F)cc3Cl)cc2)cc1
inactive: dose: 100.0 mg/kg/injection, schedule: Q01DX001 (ip), vehicle: saline with Tween-80 91 % of control | dose: 200.0 mg/kg/injection, schedule: Q01DX001 (ip), vehicle: saline with Tween-80 90 % of control

Cc1ccc(S(=O)(=O)OCCCN(CCCOS(=O)(=O)c2ccc(C)cc2)c2ccccc2)cc1
inactive: [17] 101 % of control | [12] 86 % of control | [13] 95 % of control | [16] 95 % of control

Cc1[nH]c(=O)[nH]c(=O)c1CCS
inactive: [12] 94 % of control | [13] 95 % of control | [16] 101 % of control

O=C(CC1(c2ccccc2)C(=O)c2ccccc2C1=O)c1ccccc1
inactive: [18] 94 % of control | [19] 91 % of control | [20] 94 % of control

CCN(CC)CCNc1nc(N)c(C#N)c(C#N)c1C#N
inactive: [18] 96 % of control | [19] 94 % of control | [20] 96 % of control

Cc1cccc(Cl)c1NC(=O)c1cccc([N+](=O)[O-])c1
inactive: [14] 96 % of control | [15] 90 % of control | dose: 400.0 mg/kg/injection, schedule: Q01DX009 (ip), vehicle: Klucel (hydroxypropylcellulose) (HPC) 93 % of control

CC(CS(=O)(=O)O)N1CCN(CCO)CC1 (stereo not given)
inactive: [4] 101 % of control | [5] 108 % of control | [6] 96 % of control | [7] 103 % of control | dose: 400.0 mg/kg/injection, schedule: Q01DX009 (ip), vehicle: saline 96 % of control | [8] 94 % of control

COC(=O)c1ccc(COc2ccc([N+](=O)[O-])cc2Cl)cc1
inactive: dose: 100.0 mg/kg/injection, schedule: Q01DX009 (ip), vehicle: saline sonified 94 % of control | [9] 96 % of control | dose: 200.0 mg/kg/injection, schedule: Q01DX009 (ip), vehicle: saline sonified 96 % of control | [10] 94 % of control | dose: 400.0 mg/kg/injection, schedule: Q01DX009 (ip), vehicle: saline sonified 94 % of control | [11] 96 % of control

O=[N+]([O-])c1c(-c2ccccc2)no[n+]1[O-]
inactive: dose: 40.0 mg/kg/injection, schedule: Q04DX003 (ip), vehicle: Klucel (hydroxypropylcellulose) (HPC) 91 % of control | dose: 80.0 mg/kg/injection, schedule: Q04DX003 (ip), vehicle: Klucel (hydroxypropylcellulose) (HPC) 96 % of control

C=COC(=O)Sc1c(Cl)c(Cl)c(Cl)c(Cl)c1Cl
inactive: [17] 100 % of control | [12] 97 % of control | [13] 103 % of control | [16] 92 % of control

CC(O)c1ccc2c(c1)Nc1ccccc1S2 (stereo not given)
inactive: dose: 100.0 mg/kg/injection, schedule: Q04DX002 (ip), vehicle: saline with Tween-80 91 % of control | dose: 200.0 mg/kg/injection, schedule: Q04DX002 (ip), vehicle: saline with Tween-80 105 % of control | dose: 400.0 mg/kg/injection, schedule: Q04DX002 (ip), vehicle: saline with Tween-80 91 % of control

O=C1Nc2ccccc2C1=Nc1ccccc1-c1ccccc1
inactive: [12] 91 % of control | [13] 92 % of control | [16] 96 % of control
